Measurements: patent US9144576B2, “Topical antiviral formulations” (3B Pharmaceuticals, Inc., priority 2008, dated 2015)

Assays:
HSV-1 = experiment: In vitro assay for anti-HSV-1 mRNA activity (QuantiGene Plex 2.0 bDNA) in infected primary Adult Human Dermal Microvascular Endothelial Cells; format: cell-based, HSV type 1; settings: variable slope fit; for LogIC50 (best-fit value): concentrations in μM, overnight incubation, triplicate
Description: (§1) In vitro assays for anti-HSV-1 and anti-HSV-2 mRNA activity are described in Example 1. Confluent Vero cell monolayers were infected with HSV type 1 or HSV type 2 at a multiplicity of infection of 10 and the resultant virus was used to infect primary Adult Human Dermal Microvascular Endothelial Cells for 1 hour; the supernatant was replaced with fresh culture media and then incubated overnight in the presence of various concentrations of acyclovir, 2-deoxy-D-glucose or an equimolar combination of the two compounds. After overnight incubation, the cells were harvested, lysed, and subjected to QuantiGene Plex 2.0 assay (Panomics, Inc., Fremont, Calif.) for quantitative assay of HSV-1 and HSV-2 mRNA. The QuantiGene Plex 2.0 assay combines branched DNA (bDNA) signal amplification and multi-analyte profiling beads (xMAP®) technologies to enable the detection and quantitation of multiple mRNA targets simultaneously. Briefly, confluent Vero cell monolayers were infected with HSV type 1 or HSV type 2 at a multiplicity of infection of 10 and the resultant virus was used to infect primary Adult Human Dermal Microvascular Endothelial Cells for 1 hour and then the supernatant was replaced with fresh culture media and then incubated overnight in the presence of various concentrations of acyclovir, 2-deoxy-D-glucose or an equimolar combination of the two compounds. […], this assay is considered to be a more sensitive and specific assay (bDNA) for the final readout when compared to an ELISA. The ELISA method while easier, can lack specificity to determine the difference between HSV1 and HSV2. The bDNA assay is a hybridization-based method of target-specific RNA quantitation that amplifies signal rather than target RNA, using labeled DNA probes. The QuantiGene Plex 2.0 system utilizes fluorescent microspheres (Capture Beads) as a support to capture specific RNA molecules. The ability to quantify multiple target-specific RNA molecules in a single sample lies in the design of the Probe Sets. […] The resulting fluorescence signal associated with individual Capture Beads is read on a Luminex flow cytometer. Signal is reported as median fluorescence intensity (MFI) and is proportional to the number of target RNA molecules present in the sample. […]

HSV-2 = experiment: In vitro assay for anti-HSV-2 mRNA activity (QuantiGene Plex 2.0 bDNA) in infected primary Adult Human Dermal Microvascular Endothelial Cells; format: cell-based, HSV type 2; settings: variable slope fit; for LogIC50 (best-fit value): concentrations in μM, overnight incubation, triplicate
Description: as §1

[1] = topical versus oral; cited from earlier work

| Compound | HillSlope (best-fit value) (HSV-1) | LogIC50 (best-fit value) (HSV-1) | HillSlope (best-fit value) (HSV-2) | LogIC50 (best-fit value) (HSV-2) | drug concentration in the skin after local application, lower than after given orally [1] |
| --- | --- | --- | --- | --- | --- |
| Nc1nc2c(ncn2COCCO)c(=O)[nH]1 [Acyclovir, 9-(2-hydroxyethoxymethyl)guanine] | −1.108 | 0.2509 | −1.113 | 0.2805 | 2-3 times |
| O=CC[C@@H](O)[C@H](O)[C@H](O)CO [2 Deoxy D glucose, 2-deoxy-D-glucose] | −2.395 | 1.32 | −3.957 | 0.9029 | – |
